Experimental data published in patent publication US20240115532A1, “USE OF L-ERGOTHIONEINE FOR ALLEVIATING AND PREVENTING AGE-RELATED VISUAL DEGENERATION” (NANJING NUTRABUILDING BIO-TECH CO., LTD., priority 2021, published 2024).

Assays:
ROS = experiment: Zebrafish ROS fluorescence value (CM-H2DCFDA); assay type: in vivo; settings: wild-type AB strain, 500, 1000, 2000 μg/mL, 2 days plus 20 hours staining, FIG. 3
Protocol: After 2 days of supplementation at 28° C., zebrafish were stained with CM-H2DCFDA, and the original concentration in each well remained unchanged. 10 zebrafish were randomly selected from each experimental group and transferred to black 96 microtiter plates.

[1] = system: oxidation-induced EMT in RPE; experiment: Immunoreactivity of mesenchymal markers (Slug, Snail, vimentin, OB-cadherin) in RPE sections; assay type: in vivo, C57BL/6J mice; settings: aged mice, 2 or 10 mg/kg/d by gavage for 5 months
Protocol: (§1) They were randomly divided into three groups: (1) non-supplement group (Con, n=6); (2) L-Ergothioneine supplement group with low dosage (L-Ergothioneine, 2 mg/kg/d, n=6); (3) L-Ergothioneine supplement group with high dosage (L-Ergothioneine, 10 mg/kg/d, n=6). Some mice were administered L-Ergothioneine for once daily by gavage in normal saline solution for 5 months.
(§2) Mice were euthanized by CO2 inhalation followed by cervical dislocation at the end of study and their eyes were immediately removed. The eyes of some mice (n=3) fixed in 2% paraformaldehyde for 2 h and the retina samples of some mice (n=3) were isolated from eyes radically. All tissues were frozen in optimal cutting temperature embedding compound.
From paraffin embedded blocks, 3 μm-thick parasagittal serial sections were cut with a microtome for future testing the immunoreactivity of mesenchymal markers. The immunoreactivity of mesenchymal markers (Slug, Snail, vimentin, OB-cadherin) was examined with a confocal microscope. And semi-quantitative comparative densitometric analysis performed by ImageJ of the immunoreactivity of the mesenchymal markers in 1-μm parasagittal sections of RPE. Alexa Fluor secondary antibodies were used to detect specific mesenchymal markers. DAPI (4,6-diamidino-2-fenilindole, dihydrochloride) was used to stain the nuclei of RPE cells.

[2] = system: subretinal choroidal neovascularization; experiment: Zebrafish wet macular degeneration model (cobalt chloride), choroidal vessel area; assay type: in vivo; settings: 500, 1000, 2000 μg/mL in water, 3 days, 28° C., FIG. 1
Protocol: Experimental animals: Zebrafish were raised in fish water at 28° C. (water quality: 200 mg of instant sea salt was added to each 1 L of reverse osmosis water, the conductivity was 450-550 μS/cm; pH was 6.5-8.5; hardness was […] CaCO3). Transgenic vascular green fluorescent zebrafish (Fli-1 strain) were reproduced by natural paired mating. Age is 1 day after fertilization (1 dpf).
Sample preparation: L-Ergothioneine, white powder, was prepared into 2.00 mg/mL mother solution with standard dilution water. Positive control: Aescin and digitalis double glucoside eye drops was directly sucked the original solution.
Experimental design: The transgenic vascular green fluorescent strain zebrafish aged 1 day after fertilization (1 dpf) were randomly selected and placed in a 6-well plate, with 30 fish in each well (each experimental group). L-Ergothioneine (concentrations of 500, 1000, and 2000 μg/mL) were administered in water solution, respectively, and the positive control escin and digitalis glucoside eye drops (containing 0.3 μg/mL of digitonin and 2.0 μg/mL of escin) were administered, respectively. […] After 3 days of treatment at 28° C., 10 zebrafish were randomly selected from each experimental group and placed under a fluorescence microscope to take pictures, and the NIS-Elements D 3.20 advanced image processing software was used to analyze and collect the data. […]

hif-1α genes = experiment: Zebrafish q-PCR of hif-1α genes; assay type: in vivo; settings: 3 days at 28° C., FIG. 5
Protocol: (§3) After 3 days of supplementation at 28° C., the total RNA of each group of zebrafish was extracted using an RNA rapid extraction kit, and the concentration and purity of total RNA were determined by UV-Vis spectrophotometer. Take 2.00 μg of total RNA from zebrafish samples and follow the instructions of the first-strand cDNA synthesis kit to synthesize 20.0 μL of cDNA, and detect the expression of ß-actin and VEGFR1 genes by q-PCR. Using 6-actin as an internal reference for gene expression, the relative RNA expression levels of VEGFR1 genes were calculated.
(§4) The other test condition and methods are the same as test 7. Except that just detect 6-actin, hif-1α and vegfaa genes by q-PCR.

[3] = system: zebrafish retinal structure; experiment: Zebrafish eye histopathology (H&E) after cobalt chloride model; assay type: in vivo; settings: FIG. 2
Excerpt: Experimental animals, sample preparation, sample processing and administration are same as test 4. After that, these zebrafish after 3 days of administration were fixed with 4% histiocyte fixative, then stained with H&E and they were subject to test ocular histopathological analysis.

Nrf2 = Nrf2 real-time PCR in retina tissues; assay type: in vivo, C57BL/6J mice; settings: aged mice, 2 or 10 mg/kg/d by gavage for 5 months
Protocol: as §1, §2
Total RNA was isolated from retina tissues using Trizol reagent. Real-time PCR was measured and performed with the following primers: Nrf2 forward 5′-[…]-3′. RNA samples were reverse-transcribed to cDNA and subjected to quantitative PCR, performed with a Light Cycler 96 Real-Time PCR System using the AceQ qPCR SYBR Green Master Mix. Nrf2 measurements can be identify the capacity of L-Ergothioneine-mediated Nrf2.

[4] = system: Reactive oxygen species (ROS); experiment: ROS in retina tissue by 2',7'-dichlorofluorescein diacetate fluorescence; assay type: in vivo, C57BL/6J mice; settings: aged mice, 2 or 10 mg/kg/d by gavage for 5 months
Protocol: as §1, §2
Partial retina tissues were obtained and rapidly broken up in ice-cold normal saline. A tissue homogenate (10%, w/v) was then prepared.
Antioxidant capacity of the retina was measured using an assay based on the ability of the sample to inhibit the oxidation of 2,2′-azino-di-[3-ethylbenzthiazoline sulfonate]+(ABTS) by metmyoglobin. The amount of ABTS+ produced was measured in terms of the decrease in absorbance caused by the antioxidants in the sample. Reactive oxygen species (ROS) were quantified by fluorescence spectroscopy using 2′,7′-dichlorofluorescein diacetate.

VEGFR1 genes = experiment: Zebrafish q-PCR of VEGFR1 genes; assay type: in vivo; settings: 3 days at 28° C., β-actin internal reference, FIG. 4
Protocol: Except that the positive control is bevacizumab (a potent antiangiogenic substance), experimental animals, sample preparation of L-Ergothioneine and sample processing are the same as in test 4.
as §3

VEGF = VEGF ELISA in retina tissue homogenate; assay type: in vivo, C57BL/6J mice; settings: aged mice, 2 or 10 mg/kg/d by gavage for 5 months
Protocol: They were randomly divided into three groups: (1) non-supplement group (Con, n=6); (2) L-Ergothioneine supplement group with low dosage (L-Ergothioneine, 2 mg/kg/d, n=6); (3) L-Ergothioneine supplement group with high dosage (L-Ergothioneine, 10 mg/kg/d, n=6). Some mice were administered L-Ergothioneine for once daily by gavage in normal saline solution for 5 months. […] Partial retina tissues were obtained and rapidly broken up in ice-cold normal saline. A tissue homogenate (10%, w/v) was then prepared. Retina tissues homogenate was centrifuged (2000 rpm, 10 min, 4° C.) and the supernatants were collected and applied to a pre-coated human VEGF microplate. VEGF concentrations was measured in experimental groups of mice using enzyme-linked immunosorbent assay (ELISA) kits to evaluate the levels of proinflammatory cytokines in the retina. This test can assess that the ability of L-Ergothioneine to prevent age-related visual degeneration-induced increases in VEGF level.

vegfaa genes = experiment: Zebrafish q-PCR of vegfaa genes; assay type: in vivo; settings: 3 days at 28° C., FIG. 6
Protocol: as §3, §4

[5] = system: subretinal choroidal neovascularization (CNV); experiment: Fluorescein angiography of Matrigel-induced subretinal CNV in aged mice; assay type: in vivo, C57BL/6J mice; settings: 2 or 10 mg/kg/d by gavage for 5 months
Excerpt: The healthy and male C57BL/6J mice at 18-24 months of age were maintained under the barrier conditions in a temperature-controlled environment and fed a commercial mouse chow.
The healthy and male C57BL/6J mice at 14-18 months of age were maintained under the barrier conditions in a temperature-controlled environment and fed a commercial mouse chow.
Animal mode of subretinal choroidal neovascularization (CNV): All mice were subretinally injected with Matrigel in both eyes under general anesthesia. The liquid Matrigel (75% v/v) was prepared using phosphate-buffered saline (PBS) at 4° C. After exposing the sclera, an incision was made between the limbus and the equator using a sharp No. 33 size needle. The Matrigel suspension (0.5 μl per eye) administered via a Hamilton microsyringe with a No. 33 blunt tip needle was slowly injected into the subretinal space along the previous needle tract. Following injection, the Matrigel polymerized to form a solid gel. Fluorescence angiograms were performed over a period of 3 weeks to identify whether mice have CNV.
Fluorescein angiography: After subretinal injection, fluorescein angiograms were obtained on days 3, 7, 10, 14, and 21. Briefly, every mouse group (n=5) were anesthetized with ketamine and xylazine, and the pupils were dilated with 0.5% tropicamide eye drops. […]

C[N+](C)(C)[C@@H](Cc1c[nH]c(=S)[nH]1)C(=O)[O-] [L-Ergothioneine] was tested, and the “ROS fluorescence value of zebrafish” value (ROS) was “good effect on preventing retinal degeneration”, the “mesenchymal marker immunoreactivity in RPE” value [1] was “decreased” and the “oxidation-induced EMT / epithelial fibrosis in RPE” value [1] was “inhibited”. The “choroidal vessel area of the zebrafish eye” value [2] was “could mitigate subretinal choroidal neovascularization”, the “relative expression level of hif-1α genes” value (hif-1α genes) was “lowering the expression level” and the “damage of zebrafish retinal structure (histopathological section)” value ([3]; 500, 1000, 2000 μg/mL, 3 days, H&E) was “can improve the damage of zebrafish retinal structure”. The “effect on retinal structure compared with positive control eye drops” value ([3]; versus aescin and digitalis double glucoside eye drops) was “better than that of aescin and digitalis double glucoside eye drops”, the “activation of Nrf2-mediated genes in retina” value (Nrf2) was “activated” and the “scavenging of chronic ROS in retina” value [4] was “about 45%”. The “relative expression level of VEGFR1 genes” value (VEGFR1 genes) was “decreasing the expression of VEGFR1 genes”, the “decrease of VEGF level in retina” value (VEGF) was “about 50%” and the “relative expression level of vegfaa genes” value (vegfaa genes) was “lowering the expression level”. The CNV level [5] was “attenuated obviously”.
